Counter-ions that a name gives are not always drawn.
System: eNOS promoter
Assay: Activation of eNOS transcription (eNOS promoter-luciferase reporter gene assay)
Type: cell-based
Conditions: Homo sapiens, Endothelial cell, 18 h, human endothelial cell line stably transfected with eNOS promoter-firefly luciferase construct; 18 h incubation; EC50 determined graphically; read-out: EC50 of transcription induction ratio (TIR)
Experimental: Determination of Activation of eNOS Transcription
Activation of eNOS transcription was determined as described in detail in Li et al., “Activation of protein kinase C alpha and/or epsilon enhances transcription of the human endothelial nitric oxide synthase gene”, Mol. Pharmacol. 53 (1998) 630, the content of which is incorporated herein by reference.
Briefly, a 3.5 kB long fragment 5′ of the starting codon of the eNOS gene was cloned, sequenced and cloned in firefly luciferase expression plasmids to monitor activation of the eNOS promoter by reporter gene activity. A human endothelial cell line stable transfected and expressing this promoter-reporter construct was used for compound testing. Cells were incubated for 18 h with compounds.
All compounds were dissolved in sterile dimethyl sulfoxide (DMSO). A final concentration of 0.5% DMSO in complete medium was allowed. Induction of reporter gene expression in these cells was measured using a standard luciferase assay system (Promega, Cat. No E150) according to the manufacturer's instructions. Luciferase induction in cells incubated with compounds were compared to those incubated with solvent alone. The ratio of both activities (transcription induction ratio, TIR) was plotted as a function of compound concentration,. Typically, TIR values started at low concentrations at a ratio of 1, indicating no compound effect, and extended up to a maximum TIR value TIR(max) which indicates the increase of the eNOS transcription. EC50 values of transcription induction ratios as a function of compound concentration were determined graphically.

Point of comparison: `O=C(NC1Cc2cccnc2C1)c1ccc(Cl)cc1` (single isomer, unassigned; enantiomer 1) [Example 10, 4-Chloro-N-(6,7-dihydro-5H-[1]pyrindin-6-yl)benzamide (enantiomer 1), trifluoroacetic acid salt], EC50 0.8 µM. Against it:
- Cc1ccc(C(=O)NC2Cc3ccsc3C2)c(C)c1 (stereo not drawn) [Example 27, N-(5,6-Dihydro-4H-cyclopenta[b]thiophen-5-yl)-2,4-dimethylbenzamide] — lower, < 0.1 µM
- O=C(NC1Cc2cccnc2C1)c1ccc2c(c1)OC(F)(F)O2 (single isomer, unassigned; enantiomer 1) [Example 9, 2,2-Difluorobenzo[1,3]dioxole-5-carboxylic acid (6,7-dihydro-5H-[1]pyrindin-6-yl)amide (enantiomer 1), trifluoroacetic acid salt] — within 1.5-fold, 0.93 µM
- COCc1ccc(C(=O)NC2Cc3ccsc3C2)cn1 (stereo not drawn) [Example 24, N-(5,6-Dihydro4H-cyclopenta[b]thiophen-5-yl)-6-methoxymethylnicotinamide, trifluoroacetic acid salt] — 160-fold higher, 125 µM
- Cc1nc(C)c(C(=O)NC2Cc3ccsc3C2)s1 (stereo not drawn) [Example 19, 2,4-Dimethylthiazole-5-carboxylic acid (5,6-dihydro-4H-cyclopenta[b]thiophen-5-yl)amide] — 25-fold higher, 20 µM
- COc1ccc(C(=O)NC2Cc3cccnc3C2)cn1 (single isomer, unassigned; enantiomer 1) [Example 6, N-(6,7-Dihydro-5H-[1]pyrindin-6-yl)-6-methoxynicotinamide (enantiomer 1)] — 15-fold higher, 12 µM
- O=C(NC1Cc2ccsc2C1)c1cccc(Cl)c1Cl (stereo not drawn) [Example 26, 2,3-Dichloro-N-(5,6-dihydro-4H-cyclopenta[b]thiophen-5-yl)benzamide] — 1.9-fold higher, 1.5 µM
- Cc1ccc(C(=O)NC2Cc3ccsc3C2)c(Cl)n1 (stereo not drawn) [Example 23, 2-Chloro-N-(5,6-dihydro-4H-cyclopenta[b]thiophen-5-yl)-6-methylnicotinamide] — the same, 0.8 µM
- CS(=O)(=O)Nc1cccc(C(=O)NC2Cc3ccsc3C2)c1 (stereo not drawn) [Example 29, N-(5,6-Dihydro-4H-cyclopenta[b]thiophen-5-yl)-3-methylsulfonylaminobenzamide] — 2.9-fold higher, 2.3 µM
- O=C(NC1Cc2ccsc2C1)c1ccc(N2CCOCC2)nc1 (stereo not drawn) [Example 30, N-(5,6-Dihydro-4H-cyclopenta[b]thiophen-5-yl)-6-(morpholin-4-yl)nicotinamide, trifluoroacetic acid salt] — 14-fold higher, 11 µM
- Cc1cnc(C(=O)NC2Cc3ccsc3C2)c(N)n1 (stereo not drawn) [Example 12, 3-Amino-5-methylpyrazine-2-carboxylic acid (5,6-dihydro4H-cyclopenta[b]thiophen-5-yl)amide] — 14-fold higher, 11 µM
- Cc1ccc(C(=O)NC2Cc3ccsc3C2)cn1 (stereo not drawn) [Example 22, N-(5,6-Dihydro-4H-cyclopenta[b]thiophen-5-yl)-6-methylnicotinamide, trifluoroacetic acid salt] — 2-fold higher, 1.6 µM
- Cc1ccc(C(=O)NC2Cc3ccsc3C2)c(C)n1 (stereo not drawn) [Example 13, N-(5,6-Dihydro-4H-cyclopenta[b]thiophen-5-yl)-2,6-dimethylnicotinamide, trifluoroacetic acid salt] — within 1.5-fold, 0.62 µM
- Cc1nn(C)cc1C(=O)NC1Cc2ccsc2C1 (stereo not drawn) [Example 20, 1,3-Dimethyl-1H-pyrazole-4-carboxylic acid (5,6-dihydro-4H-cyclopenta[b]thiophen-5-yl)amide] — 12-fold higher, 9.8 µM
- Cc1ccc(C(=O)NC2Cc3cccnc3C2)c(C)n1 (single isomer, unassigned; enantiomer 1) [Example 5, N-(6,7-Dihydro-5H-[1]pyrindin-6-yl)-2,6-dimethylnicotinamide (enantiomer 1)] — 4.1-fold higher, 3.3 µM
- Nc1ncccc1C(=O)NC1Cc2ccsc2C1 (stereo not drawn) [Example 21, 2-Amino-N-(5,6-dihydro-4H-cyclopenta[b]thiophen-5-yl)nicotinamide, trifluoroacetic acid salt] — 6-fold higher, 4.8 µM
- O=C(NC1Cc2ccsc2C1)c1cccc(N2CCOCC2)c1 (stereo not drawn) [Example 31, N-(5,6-Dihydro-4H-cyclopenta[b]thiophen-5-yl)-3-(morpholin-4-yl)benzamide] — 4.1-fold higher, 3.3 µM
- Nc1nccnc1C(=O)NC1Cc2ccsc2C1 (stereo not drawn) [Example 25, 3-Aminopyrazine-2-carboxylic acid (5,6-dihydro-4H-cyclopenta[b]thiophen-5-yl)amide] — 22-fold higher, 18 µM
- Cc1c(C(=O)NC2Cc3ccsc3C2)cnn1-c1ccccc1 (stereo not drawn) [Example 16, 5-Methyl-1-phenyl-1H-pyrazole-4-carboxylic acid (5,6-dihydro-4H-cyclopenta[b]thiophen-5-yl)amide] — 4-fold lower, 0.2 µM
- O=C(NC1Cc2ccsc2C1)c1cnn(-c2ccccc2)c1C(F)(F)F (stereo not drawn) [Example 17, 1-Phenyl-5-trifluoromethyl-1H-pyrazole-4-carboxylic acid (5,6-dihydro-4H-cyclopenta[b]thiophen-5-yl)amide] — 2.3-fold lower, 0.35 µM
- Cc1nc2ccc(C(=O)NC3Cc4cccnc4C3)cc2[nH]1 (single isomer, unassigned; enantiomer 1) [Example 7, 2-Methyl-3H-benzimidazole-5-carboxylic acid (6,7-dihydro-5H-[1]pyrindin-6-yl)amide (enantiomer 1)] — 29-fold higher, 23 µM
- Cc1ccc(C(=O)NC2CCCc3cccnc3C2)c(C)c1 (stereo not drawn) [Example 11, 2,4-Dimethyl-N-(6,7,8,9-tetrahydro-5H-cyclohepta[b]pyridin-8-yl)benzamide] — 12-fold lower, 0.064 µM
- O=C(NC1Cc2ccsc2C1)c1ccc(F)cc1F (stereo not drawn) [Example 28, N-(5,6-Dihydro-4H-cyclopenta[b]thiophen-5-yl)-2,4-difluorobenzamide] — within 1.5-fold, 0.76 µM
- COCc1ccc(C(=O)NC2Cc3cccnc3C2)cn1 (single isomer, unassigned; enantiomer 1) [Example 8, N-(6,7-Dihydro-5H-[1]pyrindin-6-yl)-6-methoxymethyinicotinamide (enantiomer 1)] — 38-fold higher, 30 µM
- Cc1nc2ccc(C(=O)NC3Cc4ccsc4C3)cc2[nH]1 (stereo not drawn) [Example 15, 2-Methyl-3H-benzimidazole-5-carboxylic acid (5,6-dihydro-4H-cyclopenta[b]thiophen-5-yl)amide, trifluoroacetic acid salt] — 3.9-fold higher, 3.1 µM
- Cc1cc(C(=O)NC2Cc3ccsc3C2)c(C)n1Cc1ccncc1 (stereo not drawn) [Example 18, 2,5-Dimethyl-1-pyridin-4-ylmethyl-1H-pyrrole-3-carboxylic acid (5,6-dihydro-4H-cyclopenta[b]thiophen-5-yl)amide, trifluoroacetic acid salt] — 4.1-fold higher, 3.3 µM
- COc1ccc(C(=O)NC2Cc3ccsc3C2)cn1 (stereo not drawn) [Example 14, N-(5,6-Dihydro-4 H-cyclopenta[b]thiophen-5-yl)-6-methoxynicotinamide] — 3-fold higher, 2.4 µM

Source: patent US7105513B2, “Acylated, heteroaryl-condensed cycloalkenylamines and their use as pharmaceuticals” (Sanofi-Avertis Deutschland GmbH, priority 2002, dated 2006)
